# Laboratory results from patent US12708640B2, “Synergistic nutritional compositions for treating vestibular associated neurodegenerative diseases” (CELAGENEX RESEARCH (INDIA) PVT. LTD., priority 2021, dated 2026).
# Assays:
# Assay type in all cases: in vivo, Albino Wistar rat
# [1] = Rat feed consumption in the sodium arsanilate vestibular dysfunction study; conditions: rats, group value
# From the text: (§1) “Evaluation of test substance on sodium arsanilate induced vestibular dysfunction (Vertigo disorder) in wistar rats”.
# (§2) • Test Species: Rat • Strain: Albino Wistar • Sex: Male/Female • Age: 6-8 Weeks • Body Weight: 180-200 g • Source: In house breed • Total No. of Animals: 42 Animals (7 groups of 6 animals each) • Feed: Normal chow diet (Purina lab diet 5L79 Rat and Mouse 18%) (PMI Nutrition International) Environmental Conditions:
# (§3) All the animals were acclimatized for at least 5 days under controlled environmental condition. Total 42 animals were divided into seven groups consisting of 6 animals per group. Normal control (G1) group receiving vehicle, disease control (G2) group receiving sodium arsanilate injection only, standard group (G3) receiving reference standard (vertin) and treatment groups G4, G5, G6 & G7 were treated with the test substances. All the groups (except normal control group) were induced with sodium arsanilate via intratymphanic injection. All the treatment groups were administered daily for 7 consecutive days.
# The feed consumption was calculated and reported on a daily basis throughout the study period.
# [2] = system: sodium arsanilate induced vestibular dysfunction (Vertigo disorder) in wistar rats; assay: Open field test
# From the text: as §1
# (§4) Vestibular dysfunction was induced in rats by intratympanic injection of sodium arsanilate an ototoxic compound. Sodium arsanilate is an arsenic derivative and intratympanic injection result was vestibular nerve degeneration in brain stem with concomitant loss of labyrinthine righting and reduced postural support with exaggerated head dorsiflexion.
# as §3
# The open-field was circular, with a diameter of 90 cm, and enclosed by a wall 30 cm high. The floor and wall of the open-field was black and the floor was divided into 25 equal area sections by thin white lines. The floor was covered with a transparent plastic coating. The open-field apparatus was located inside a large wooden frame which surrounded on all sides by black curtains. The field was illuminated by two 60-W fluorescent lights located 100 cm above the floor.
# At the start of each session the rats were placed in one of the peripheral sections of the open-field and the animal's behavior was monitored by an observer for 10 consecutive minutes. […] At the end of each session the rat was returned to its home cage and the floor of the open-field was cleaned and sponged over with a weak vinegar solution to remove any residual odors.
# [3] = system: sodium arsanilate induced vestibular dysfunction (Vertigo disorder) in wistar rats; assay: Contact righting reflex
# From the text: as §1, §4, §3
# The rats were placed in a syringe core tube in a supine position, following which the recovery time for position correction to be recorded. Normal rats turned over their body position in a few seconds.
# [4] = Rat body weight in the sodium arsanilate vestibular dysfunction study; conditions: rats, group value
# From the text: as §1, §2, §3
# Individual body weights were recorded at receipt, on the day of randomization, on the first day of treatment before dosing and weekly once thereafter throughout the treatment period. The body weight changes for all the animals were calculated and reported along with the body weight data.
# [5] = system: sodium arsanilate induced vestibular dysfunction (Vertigo disorder) in wistar rats; assay: Air righting reflex (air reflecting index)
# From the text: as §1, §4, §3
# A sponge was spread on a flat surface and the animals were placed in a supine position in the air 50 cm away above the sponge, following which the animal was dropped horizontally.
# Four-legged smooth landing on the ground was considered as positive (normal animal), whereas the body or other regions landing first was considered vestibular dysfunction animals. The positive landing rate (%) of each rat in each group was recorded.
# [6] = open field test, wrt. disease control G2
smiles,measurement,setting,value
"O=c1ccn([C@@H]2O[C@H](COP(=O)(O)O)[C@@H](O)[C@H]2O)c(=O)[nH]1 [Group 5, Uridine monophosphate]","Feed Consumption, 0 day",[1]; 0 day,15.50 gm
same,"Feed Consumption, 7th day",[1]; 7th day,16.67 gm
same,Ambulation Score [the number of open-field sections entered by the rat],[2]; animal 1,200
same,Defecation [the number of fecal boli deposited in the open-field],[2]; animal 1,4
same,Grooming [the number of grooming bouts exhibited by the rat],[2]; animal 1,2
same,Rearing Responses [the number of times the animal raised both forefeet off the floor and extended its body],[2]; animal 1,3
same,Ambulation Score [the number of open-field sections entered by the rat],[2]; animal 2,180
same,Defecation [the number of fecal boli deposited in the open-field],[2]; animal 2,2
same,Grooming [the number of grooming bouts exhibited by the rat],[2]; animal 2,4
same,Rearing Responses [the number of times the animal raised both forefeet off the floor and extended its body],[2]; animal 2,4
same,Ambulation Score [the number of open-field sections entered by the rat],[2]; animal 3,190
same,Defecation [the number of fecal boli deposited in the open-field],[2]; animal 3,3
same,Grooming [the number of grooming bouts exhibited by the rat],[2]; animal 3,3
same,Rearing Responses [the number of times the animal raised both forefeet off the floor and extended its body],[2]; animal 3,3
same,Ambulation Score [the number of open-field sections entered by the rat],[2]; animal 4,160
same,Defecation [the number of fecal boli deposited in the open-field],[2]; animal 4,4
same,Grooming [the number of grooming bouts exhibited by the rat],[2]; animal 4,3
same,Rearing Responses [the number of times the animal raised both forefeet off the floor and extended its body],[2]; animal 4,4
same,Ambulation Score [the number of open-field sections entered by the rat],[2]; animal 5,200
same,Defecation [the number of fecal boli deposited in the open-field],[2]; animal 5,3
same,Grooming [the number of grooming bouts exhibited by the rat],[2]; animal 5,4
same,Rearing Responses [the number of times the animal raised both forefeet off the floor and extended its body],[2]; animal 5,3
same,Ambulation Score [the number of open-field sections entered by the rat],[2]; animal 6,190
same,Defecation [the number of fecal boli deposited in the open-field],[2]; animal 6,4
same,Grooming [the number of grooming bouts exhibited by the rat],[2]; animal 6,4
same,Rearing Responses [the number of times the animal raised both forefeet off the floor and extended its body],[2]; animal 6,4
same,"Ambulation Score [the number of open-field sections entered by the rat], Average",[2]; group average of 6 animals,186.67
same,"Defecation [the number of fecal boli deposited in the open-field], Average",[2]; group average of 6 animals,3.33
same,"Grooming [the number of grooming bouts exhibited by the rat], Average",[2]; group average of 6 animals,3.33
same,"Rearing Responses [the number of times the animal raised both forefeet off the floor and extended its body], Average",[2]; group average of 6 animals,3.50
same,% Improvement in Ambulation score wrt. G2,[2]; [6],25.83%
same,% Improvement in Defecation wrt. G2,[2]; [6],23.08%
same,% Improvement in Grooming wrt. G2,[2]; [6],57.45%
same,% Improvement in Rearing Responses wrt. G2,[2]; [6],32.81%
same,Contact righting reflex (time),"[3]; animal 1, recovery time for position correction",30 s
same,Contact righting reflex (time),"[3]; animal 2, recovery time for position correction",29 s
same,Contact righting reflex (time),"[3]; animal 3, recovery time for position correction",28 s
same,Contact righting reflex (time),"[3]; animal 4, recovery time for position correction",27 s
same,Contact righting reflex (time),"[3]; animal 5, recovery time for position correction",30 s
same,Contact righting reflex (time),"[3]; animal 6, recovery time for position correction",26 s
same,"Contact righting reflex (time), Average",[3]; group average of 6 animals,28.33 s
same,"contact righting reflex, improvement (wrt. the Disease Control)",[3]; wrt. the Disease Control,≤ 30%
same,"Body Weight, End of the treatment",[4]; after 7 days daily treatment,190.08 gm
same,"Body Weight, Initial",[4]; initial,189.02 gm
same,Air Righting Reflex (% successfully righted within 5 s),[5]; animal 1,40%
same,"Air Righting Reflex, Successful out of 5","[5]; animal 1, end of 7-day treatment",2
same,Air Righting Reflex (% successfully righted within 5 s),[5]; animal 2,40%
same,"Air Righting Reflex, Successful out of 5","[5]; animal 2, end of 7-day treatment",2
same,Air Righting Reflex (% successfully righted within 5 s),[5]; animal 3,20%
same,"Air Righting Reflex, Successful out of 5","[5]; animal 3, end of 7-day treatment",1
same,Air Righting Reflex (% successfully righted within 5 s),[5]; animal 4,40%
same,"Air Righting Reflex, Successful out of 5","[5]; animal 4, end of 7-day treatment",2
same,Air Righting Reflex (% successfully righted within 5 s),[5]; animal 5,20%
same,"Air Righting Reflex, Successful out of 5","[5]; animal 5, end of 7-day treatment",1
same,Air Righting Reflex (% successfully righted within 5 s),[5]; animal 6,40%
same,"Air Righting Reflex, Successful out of 5","[5]; animal 6, end of 7-day treatment",2
same,"Air Righting Reflex (% of Rats that successfully righted themselves within 5 s), Average",[5]; group average of 6 animals,33.33%
